Legend:
[1] = tested on: partially nephrectomized mice; assay: 5/6 nephrectomy model; assay type: in vivo; set-up: reduction in UACR / UACR reduction vs vehicle: concentration or dose not given beside the values; conditions: for UACR reduction vs vehicle: 5/6 nephrectomy model (Example 7, FIG. 8), week one; for reduction in UACR: mono-therapy
Experimental: (§1) 5/6 nephrectomy mice on the 129X1/SvJ background were obtained from Jackson Laboratories, and were received at ChemoCentryx after the surgery was performed at JAX. Under isoflurane anesthesia, two-thirds of the left kidney mass was removed at 5-6 weeks of age. Then, after 7 to 10 days, a right unilateral nephrectomy was performed. The mice were fed a standard chow and had free access to water. Three weeks after the 5/6 nephrectomy, the mice were grouped to ensure a similar starting UAER in each treatment group. […] The RAAS blocker candesartan (AK Scientific, Union City, Calif.) and its vehicle were dosed orally once daily at 5 mg/kg formulated in water. Sparsentan, the dual-acting receptor antagonist for endothelin (A type) and angiotensin II receptors (Type 1) (Murugesan et al, 2005) was synthesized at ChemoCentryx and was dosed orally twice daily at 90 mg/kg formulated in 1% HPMC. The mice were housed individually in metabolic cages for quantitative collection of urinary albumin and creatinine.
(§2) Chemotaxis, calcium mobilization, and radio-ligand binding assays were conducted as previously described (Sullivan et al, 2013; Walters et al, 2010). Inhibition values (IC50) were calculated using non-linear regression with a one-site competition model (GraphPad Prism, GraphPad Software, La Jolla, Calif.). A2 values for assessment of potency in chemotaxis assays denotes the concentration of the antagonist required to right-shift by 2-fold the chemokine dose-response curve. […] Urinary albumin was measured by ELISA (Bethyl Labs, Montgomery, Tex.). Urinary and serum creatinine was measured by LC-MS/MS at ChemoCentryx. The urinary albumin excretion rate (UAER) was calculated as micrograms per 24 h. Blood urea nitrogen (BUN) was measured by Antech Diagnostics (Morrisville, N.C.). The albumin to creatinine ratio (ACR) was calculated as micrograms of albumin per milligram of creatinine.
To corroborated the above findings, another FSGS model mechanistically distinct from the Adriamycin approach was tested, the 5/6 nephrectomy model. Beginning three weeks after the completion of surgery, the mice were treated with Compound 1 or RAAS blocker either alone or in combination. As above, renal function was quantified by measuring the UACR, UAER serum creatinine and BUN levels.

[2] = tested on: Adriamycin challenged mice; assay: Adriamycin induced FSGS model; assay type: in vivo; conditions: for UAER: Adriamycin nephropathy model, Compound 1 90 mg/kg s.c. once daily, RAAS blocker 5 mg/kg orally once daily
Experimental: These experiments were performed using female Balb/c mice (Jackson Laboratories, Bar Harbor, Me.). The mice were kept on standard chow and had free access to water. At age of 10 weeks, 7.5 mg/kg Adriamycin (Selleck Chemicals, Houston, Tex.) or saline (control) was injected via tail vein in isoflurane-anesthetized animals (day 0). […] The RAAS blocker Candesartan (AK Scientific, Union City, Calif.) and its vehicle were dosed orally once daily at 5 mg/kg, formulated in water. All dosing started 2 hours prior Adriamycin challenge. The mice were housed individually in metabolic cages for quantitative collection of urinary albumin and creatinine. Chemotaxis, calcium mobilization, and radio-ligand binding assays were conducted as previously described (Sullivan et al, 2013; Walters et al, 2010). Inhibition values (IC50) were calculated using non-linear regression with a one-site competition model (GraphPad Prism, GraphPad Software, La Jolla, Calif.). A2 values for assessment of potency in chemotaxis assays denotes the concentration of the antagonist required to right-shift by 2-fold the chemokine dose-response curve. […] Urinary albumin was measured by ELISA (Bethyl Labs, Montgomery, Tex.). Urinary and serum creatinine was measured by LC-MS/MS at ChemoCentryx. The urinary albumin excretion rate (UAER) was calculated as micrograms per 24 h. Blood urea nitrogen (BUN) was measured by Antech Diagnostics (Morrisville, N.C.). The albumin to creatinine ratio (ACR) was calculated as micrograms of albumin per milligram of creatinine. […] Adriamycin is an oncolytic antibiotic that induces proteinuria and glomerulosclerosis in rodents after a single infusion. […] The level of protection was equal to or better than that of RAAS blockade.

CCR7 = biological target: T1, CCR7 (Homo sapiens, UniProt P32248); assay: CCR7 Activated Lymphocyte Calcium Mobilization; assay type: cell-based; conditions: read-out: Potency (IC50), CCR7
T1 construct: endogenous in cells
T1 sequence (P32248 25-378): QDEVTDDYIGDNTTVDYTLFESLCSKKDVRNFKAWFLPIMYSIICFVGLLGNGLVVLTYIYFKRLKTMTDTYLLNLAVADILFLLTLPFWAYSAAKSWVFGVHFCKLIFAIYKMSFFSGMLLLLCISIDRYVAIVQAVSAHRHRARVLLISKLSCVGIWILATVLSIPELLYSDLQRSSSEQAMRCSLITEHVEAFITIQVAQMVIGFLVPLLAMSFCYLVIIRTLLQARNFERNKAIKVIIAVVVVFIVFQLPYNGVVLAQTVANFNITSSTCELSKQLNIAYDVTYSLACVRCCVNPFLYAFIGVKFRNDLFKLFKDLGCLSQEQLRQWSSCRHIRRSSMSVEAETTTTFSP
Experimental: as §2

CXCR5 = biological target: T2, CXCR5 (Homo sapiens, UniProt P32302); assay: Baf3-CXCR5 Calcium Mobilization; assay type: cell-based; conditions: read-out: Potency (IC50), CXCR5
T2 construct: expressed in transfected cells; host or cells: Baf3
T2 sequence (P32302 whole entry): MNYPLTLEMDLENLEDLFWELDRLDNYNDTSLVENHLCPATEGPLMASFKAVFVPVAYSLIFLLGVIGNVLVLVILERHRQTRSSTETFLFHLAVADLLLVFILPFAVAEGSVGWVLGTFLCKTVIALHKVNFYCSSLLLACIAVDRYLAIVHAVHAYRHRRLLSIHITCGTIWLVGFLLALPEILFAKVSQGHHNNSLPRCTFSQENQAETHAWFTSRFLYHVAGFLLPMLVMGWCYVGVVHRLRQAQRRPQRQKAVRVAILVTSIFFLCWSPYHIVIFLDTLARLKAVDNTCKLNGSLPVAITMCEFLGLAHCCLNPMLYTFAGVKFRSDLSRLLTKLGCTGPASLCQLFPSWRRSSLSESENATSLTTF
Experimental: as §2

CCR3 = biological target: T3, CCR3 (Homo sapiens, UniProt P51677); assay: 293-CCR3 Calcium Mobilization; assay type: cell-based; conditions: read-out: Potency (IC50), CCR3
T3 construct: expressed in transfected cells; host or cells: 293
T3 sequence (P51677 whole entry): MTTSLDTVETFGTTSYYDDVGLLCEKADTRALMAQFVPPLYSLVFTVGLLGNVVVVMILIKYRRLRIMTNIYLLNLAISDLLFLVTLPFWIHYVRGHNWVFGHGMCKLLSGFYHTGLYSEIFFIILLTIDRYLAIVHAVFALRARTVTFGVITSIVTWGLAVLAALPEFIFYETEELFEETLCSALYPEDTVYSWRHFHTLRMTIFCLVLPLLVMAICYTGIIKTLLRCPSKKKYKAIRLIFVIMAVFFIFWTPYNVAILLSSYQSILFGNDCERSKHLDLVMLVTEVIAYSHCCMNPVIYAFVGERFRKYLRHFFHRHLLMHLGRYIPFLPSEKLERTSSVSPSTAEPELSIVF
Experimental: as §2

[3] = tested on: kidneys of 5/6 nephrectomized mice; assay: Histological analysis of kidneys from the 5/6 nephrectomy model; assay type: in vivo
Experimental: as §1, with “Sparsentan, the dual-acting receptor antagonist for endothelin (A type) and angiotensin II receptors (Type 1) (Murugesan et al, 2005) was synthesized at ChemoCentryx and was dosed orally twice daily at 90 mg/kg formulated in 1% HPMC.” left out
The kidneys were collected, fixed in formalin, embedded in paraffin, and cut into 5-μm-thick sections. […] Glomerular hypertrophy, mesangial expansion, glomerular sclerosis, and tubular structure were determined by examination of sections by an observer blinded to the treatment groups.
Fixed kidney sections were obtained from 5/6 nephrectomized mice for pathology. The sections were stained and evaluated to determine whether the Compound 1-mediated improvements in renal function were associated with anatomical changes.

CXCR3 = biological target: T4, CXCR3 (Homo sapiens, UniProt P49682); assay: CXCR3 Activated Lymphocyte Calcium Mobilization; assay type: cell-based; conditions: read-out: Potency (IC50), CXCR3
T4 construct: endogenous in cells
T4 sequence (P49682 whole entry): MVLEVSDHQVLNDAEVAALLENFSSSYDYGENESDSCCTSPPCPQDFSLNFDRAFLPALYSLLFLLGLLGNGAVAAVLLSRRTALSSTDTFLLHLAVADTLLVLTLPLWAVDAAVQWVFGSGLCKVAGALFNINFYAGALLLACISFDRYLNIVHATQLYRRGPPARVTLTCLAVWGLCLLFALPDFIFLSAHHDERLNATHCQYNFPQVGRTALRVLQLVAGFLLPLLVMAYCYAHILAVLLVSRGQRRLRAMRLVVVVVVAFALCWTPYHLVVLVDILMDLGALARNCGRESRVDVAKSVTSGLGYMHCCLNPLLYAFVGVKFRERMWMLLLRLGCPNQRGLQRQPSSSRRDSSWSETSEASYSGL
Experimental: as §2

C5aR = biological target: T5, C5aR (Homo sapiens, UniProt P21730); assay: C5aR Neutrophil Calcium Mobilization; assay type: cell-based; conditions: read-out: Potency (IC50), C5aR
T5 construct: Human monocytes and neutrophils were isolated from healthy volunteers; host or cells: primary human neutrophils
T5 sequence (P21730 whole entry): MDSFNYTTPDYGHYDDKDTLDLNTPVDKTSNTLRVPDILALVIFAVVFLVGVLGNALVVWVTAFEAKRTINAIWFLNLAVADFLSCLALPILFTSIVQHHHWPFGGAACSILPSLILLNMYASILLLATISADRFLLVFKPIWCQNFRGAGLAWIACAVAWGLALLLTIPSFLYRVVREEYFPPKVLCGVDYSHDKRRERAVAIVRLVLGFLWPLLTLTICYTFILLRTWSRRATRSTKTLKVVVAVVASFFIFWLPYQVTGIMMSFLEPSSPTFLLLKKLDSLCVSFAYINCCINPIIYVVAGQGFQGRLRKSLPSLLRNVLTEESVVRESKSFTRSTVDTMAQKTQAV
Experimental: as §2

CCR1 = biological target: T6, CCR1 (Homo sapiens, UniProt P32246); assay: CCR1 Monocyte Chemotaxis; assay type: cell-based; conditions: read-out: Potency (IC50), CCR1
T6 construct: Human monocytes and neutrophils were isolated from healthy volunteers; host or cells: primary human monocytes
T6 sequence (P32246 whole entry): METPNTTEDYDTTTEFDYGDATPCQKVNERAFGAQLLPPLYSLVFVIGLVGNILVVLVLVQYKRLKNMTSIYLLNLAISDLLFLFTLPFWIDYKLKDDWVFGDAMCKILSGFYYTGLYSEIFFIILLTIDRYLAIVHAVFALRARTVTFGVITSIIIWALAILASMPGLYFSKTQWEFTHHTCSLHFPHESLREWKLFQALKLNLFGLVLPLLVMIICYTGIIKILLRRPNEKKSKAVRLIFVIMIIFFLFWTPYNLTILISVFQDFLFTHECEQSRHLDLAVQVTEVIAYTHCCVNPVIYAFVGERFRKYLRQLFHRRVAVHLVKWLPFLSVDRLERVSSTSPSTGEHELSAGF
Experimental: as §2

CCR4 = biological target: T7, CCR4 (Homo sapiens, UniProt P51679); assay: CCR4 Activated Lymphocyte Calcium Mobilization; assay type: cell-based; conditions: read-out: Potency (IC50), CCR4
T7 construct: endogenous in cells
T7 sequence (P51679 whole entry): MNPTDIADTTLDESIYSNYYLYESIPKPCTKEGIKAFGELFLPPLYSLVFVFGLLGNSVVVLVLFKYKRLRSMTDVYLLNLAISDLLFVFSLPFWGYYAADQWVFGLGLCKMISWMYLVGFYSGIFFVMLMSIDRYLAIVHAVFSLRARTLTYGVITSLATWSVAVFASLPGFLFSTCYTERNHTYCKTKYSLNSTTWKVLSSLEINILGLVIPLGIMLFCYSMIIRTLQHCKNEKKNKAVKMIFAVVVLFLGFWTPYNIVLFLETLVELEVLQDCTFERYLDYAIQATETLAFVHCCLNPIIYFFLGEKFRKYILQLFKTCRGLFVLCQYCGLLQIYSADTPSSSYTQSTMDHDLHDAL
Experimental: as §2

CXCR1 = biological target: T8, CXCR1 (Homo sapiens, UniProt P25024); assay: CXCR1 Neutrophil Calcium Mobilization; assay type: cell-based; conditions: read-out: Potency (IC50), CXCR1
T8 construct: Human monocytes and neutrophils were isolated from healthy volunteers; host or cells: primary human neutrophils
Experimental: as §2

CXCR2 = biological target: T9, CXCR2 (Homo sapiens, UniProt P25025); assay: CXCR2 Neutrophil Calcium Mobilization; assay type: cell-based; conditions: read-out: Potency (IC50), CXCR2
T9 construct: Human monocytes and neutrophils were isolated from healthy volunteers; host or cells: primary human neutrophils
T9 sequence (P25025 whole entry): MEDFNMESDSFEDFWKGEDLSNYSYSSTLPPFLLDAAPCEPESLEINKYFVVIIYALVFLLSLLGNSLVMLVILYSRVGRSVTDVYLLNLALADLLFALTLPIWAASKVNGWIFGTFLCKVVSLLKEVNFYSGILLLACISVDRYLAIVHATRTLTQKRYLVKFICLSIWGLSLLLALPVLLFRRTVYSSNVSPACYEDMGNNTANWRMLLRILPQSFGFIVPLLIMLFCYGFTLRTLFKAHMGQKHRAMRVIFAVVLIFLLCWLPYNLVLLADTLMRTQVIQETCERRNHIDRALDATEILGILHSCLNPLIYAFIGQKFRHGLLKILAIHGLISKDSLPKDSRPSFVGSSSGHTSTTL
Experimental: as §2

C3aR = biological target: T10, C3aR (Homo sapiens, UniProt Q16581); assay: C3aR Neutrophil Calcium Mobilization; assay type: cell-based; conditions: read-out: Potency (IC50), C3aR
T10 construct: Human monocytes and neutrophils were isolated from healthy volunteers; host or cells: primary human neutrophils
T10 sequence (Q16581 whole entry): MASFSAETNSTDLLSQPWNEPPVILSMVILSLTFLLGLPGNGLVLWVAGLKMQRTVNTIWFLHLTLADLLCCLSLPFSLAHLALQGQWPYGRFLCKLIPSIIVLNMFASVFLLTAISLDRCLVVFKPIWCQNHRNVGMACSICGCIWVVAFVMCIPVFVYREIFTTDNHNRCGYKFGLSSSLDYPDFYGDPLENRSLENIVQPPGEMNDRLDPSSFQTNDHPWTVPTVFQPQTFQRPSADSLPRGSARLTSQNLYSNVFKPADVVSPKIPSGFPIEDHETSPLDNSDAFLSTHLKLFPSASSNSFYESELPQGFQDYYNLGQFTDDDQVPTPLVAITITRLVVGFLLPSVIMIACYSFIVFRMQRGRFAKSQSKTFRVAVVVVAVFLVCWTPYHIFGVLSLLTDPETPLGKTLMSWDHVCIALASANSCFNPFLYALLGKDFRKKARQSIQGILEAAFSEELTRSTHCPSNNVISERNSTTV
Experimental: as §2

CCR8 = biological target: T11, CCR8 (Homo sapiens, UniProt P51685); assay: 293-CCR8 Calcium Mobilization; assay type: cell-based; conditions: read-out: Potency (IC50), CCR8
T11 construct: expressed in transfected cells; host or cells: 293
T11 sequence (P51685 whole entry): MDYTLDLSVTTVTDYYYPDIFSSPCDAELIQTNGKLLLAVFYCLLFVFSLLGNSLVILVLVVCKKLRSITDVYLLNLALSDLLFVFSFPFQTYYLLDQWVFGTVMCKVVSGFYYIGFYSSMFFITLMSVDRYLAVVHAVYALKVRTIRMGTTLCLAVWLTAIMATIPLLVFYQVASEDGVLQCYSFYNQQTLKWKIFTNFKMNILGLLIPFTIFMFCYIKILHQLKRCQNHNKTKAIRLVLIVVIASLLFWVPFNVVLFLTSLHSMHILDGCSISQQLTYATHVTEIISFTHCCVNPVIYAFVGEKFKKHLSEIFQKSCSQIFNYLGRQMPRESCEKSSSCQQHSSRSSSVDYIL
Experimental: as §2

CCR10 = biological target: T12, CCR10 (Homo sapiens, UniProt P46092); assay: 293-CCR10 Calcium Mobilization; assay type: cell-based; conditions: read-out: Potency (IC50), CCR10
T12 construct: expressed in transfected cells; host or cells: 293
T12 sequence (P46092 whole entry): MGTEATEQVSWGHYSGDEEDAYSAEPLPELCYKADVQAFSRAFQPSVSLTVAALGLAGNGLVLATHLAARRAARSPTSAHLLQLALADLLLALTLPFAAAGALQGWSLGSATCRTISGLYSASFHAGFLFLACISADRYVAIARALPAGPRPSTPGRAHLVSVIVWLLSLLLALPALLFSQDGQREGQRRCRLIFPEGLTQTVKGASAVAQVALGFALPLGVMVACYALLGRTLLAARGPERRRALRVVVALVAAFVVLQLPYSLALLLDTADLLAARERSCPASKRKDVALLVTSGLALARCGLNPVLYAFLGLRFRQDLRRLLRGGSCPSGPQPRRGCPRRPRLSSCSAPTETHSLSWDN
Experimental: as §2

CCR9 = biological target: T13, CCR9 (Homo sapiens, UniProt P51686); assay: CCR9 Molt4 Serum Chemotaxis; assay type: cell-based; conditions: read-out: Potency (IC50), CCR9
T13 construct: cell lines that either endogenously expressed certain chemokine receptors; endogenous in cells; host or cells: Molt4
T13 sequence (P51686 whole entry): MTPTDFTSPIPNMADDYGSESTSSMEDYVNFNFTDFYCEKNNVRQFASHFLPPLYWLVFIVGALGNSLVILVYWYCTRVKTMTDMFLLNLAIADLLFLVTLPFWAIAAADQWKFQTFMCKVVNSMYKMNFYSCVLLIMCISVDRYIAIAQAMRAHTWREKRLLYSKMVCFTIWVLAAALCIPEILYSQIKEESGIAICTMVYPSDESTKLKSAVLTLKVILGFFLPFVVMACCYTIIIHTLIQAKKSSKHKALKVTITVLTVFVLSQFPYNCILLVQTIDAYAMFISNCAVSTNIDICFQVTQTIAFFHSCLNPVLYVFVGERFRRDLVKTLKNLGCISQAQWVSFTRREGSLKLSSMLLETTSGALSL
Experimental: as §2

CCR2 [4] = biological target: T14, CCR2 (Mus musculus, UniProt P51683); assay: Inhibition of radio-labeled mJE (CCL2) binding to WEHI-274 cells; conditions: WEHI-274 murine monocyte cell line endogenously expressing CCR2
T14 construct: WEHI-274 murine monocyte cell line that endogenously expresses CCR2; host or cells: WEHI-274.1
Experimental: as §2

[5] = Mouse pharmacokinetic (PK) study; assay type: in vivo; conditions: male, 129s, plasma, sc, mice, single s.c. injection at 90 mg/kg, 24 hours post-dosing
Experimental: Blood was drawn at 0.5, 2, […], 4, 8, 12, and 24 hours post-dosing. Compound 1 drug level was analyzed by LC-MS/MS at ChemoCentryx with plasma samples.
To determine if Compound 1 was suitable for in vivo experiments, we analyzed its pharmacokinetic profile in mice.

CCR6 = biological target: T15, CCR6 (Homo sapiens, UniProt P51684); assay: CCR6 Activated Lymphocyte Calcium Mobilization; assay type: cell-based; conditions: read-out: Potency (IC50), CCR6
T15 construct: endogenous in cells
T15 sequence (P51684 whole entry): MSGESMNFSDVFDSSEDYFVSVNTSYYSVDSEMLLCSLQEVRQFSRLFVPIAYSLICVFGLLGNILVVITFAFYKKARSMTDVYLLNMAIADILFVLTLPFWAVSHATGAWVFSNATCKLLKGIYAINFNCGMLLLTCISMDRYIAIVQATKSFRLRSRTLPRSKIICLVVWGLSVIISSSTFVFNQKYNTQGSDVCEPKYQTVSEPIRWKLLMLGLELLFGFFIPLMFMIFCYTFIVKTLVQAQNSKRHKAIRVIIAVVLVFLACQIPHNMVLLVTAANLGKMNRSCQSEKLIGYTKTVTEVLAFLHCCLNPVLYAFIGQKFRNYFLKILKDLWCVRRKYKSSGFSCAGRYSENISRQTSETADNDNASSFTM
Experimental: as §2

CXCR7 = biological target: T16, CXCR7 (Homo sapiens, UniProt P25106); assay: 293-CXCR7 Radio-ligand Binding; conditions: read-out: Potency (IC50), CXCR7
T16 construct: expressed in transfected cells; host or cells: 293
Experimental: as §2

CXCR6 = biological target: T17, CXCR6 (Homo sapiens, UniProt O00574); assay: CXCR6 Activated Lymphocyte Buffer Chemotaxis; assay type: cell-based; conditions: read-out: Potency (IC50), CXCR6
T17 construct: endogenous in cells
Experimental: as §2

CCR2 [6] = biological target: T18, CCR2 (Homo sapiens, UniProt P41597); assay: CCR2 ThP1 Cell Chemotaxis; assay type: cell-based; conditions: read-out: Potency (IC50), CCR2
T18 construct: cell lines that either endogenously expressed certain chemokine receptors; host or cells: ThP1
Experimental: as §2

CXCR4 = biological target: T19, CXCR4 (Homo sapiens, UniProt P61073); assay: CXCR4 Activated Lymphocyte Calcium Mobilization; assay type: cell-based; conditions: read-out: Potency (IC50), CXCR4
T19 construct: endogenous in cells
Experimental: as §2

[7] = 5/6 nephrectomy model, comparison with ET1/AT2 dual inhibitor (Table 4), Week 1
[8] = 5/6 nephrectomy model, comparison with ET1/AT2 dual inhibitor (Table 4), Week 2
[9] = 5/6 nephrectomy model, comparison with ET1/AT2 dual inhibitor (Table 4), Week 4
[10] = 5/6 nephrectomy model (Table 3), Week 1, Compound 1 90 mg/kg, RAAS Blocker 5 mg/kg
[11] = 5/6 nephrectomy model (Table 3), Week 2, Compound 1 90 mg/kg, RAAS Blocker 5 mg/kg
[12] = 5/6 nephrectomy model (Table 3), Week 3, Compound 1 90 mg/kg, RAAS Blocker 5 mg/kg

CCCCC1=NC2(CCCC2)C(=O)N1Cc1ccc(-c2ccccc2S(=O)(=O)Nc2noc(C)c2C)c(COCC)c1 [ET1/AT2 Dual Blocker, Sparsentan, reference compound]
UACR reduction vs vehicle [1]: 93.5%
UAER [1, 7]: 2.6, p = 0.036 mg/day
UAER [1, 8]: 1.5, p = 0.01 mg/day
UAER [1, 9]: 1.15, p = 0.001 mg/day

CCOc1nc2cccc(C(=O)O)c2n1Cc1ccc(-c2ccccc2-c2nnn[nH]2)cc1 [RAAS Blocker, Candesartan, reference compound]
UAER ([2]; Week 1): 39.46, p = 0.16 mg/day
UAER ([2]; Week 2): 66.87 mg/day
UACR reduction vs vehicle [1]: 73.4%
UAER [1, 10]: 8.27, p = 0.03 mg/day
UAER [1, 11]: 3.62, p = 0.03 mg/day
UAER [1, 12]: 3.32, p < 0.0001 mg/day
UAER [1, 7]: 9.4, p = 0.27 mg/day
UAER [1, 8]: 7.7, p = 0.06 mg/day
UAER [1, 9]: 1.7, p = 0.02 mg/day

Cc1cnc(C(=O)c2ccnc3[nH]ccc23)c(NS(=O)(=O)c2ccc(Cl)c(C(F)(F)F)c2)c1 [Compound 1]
IC50 (CCR7): > 10 µM
IC50 (CXCR5): > 10 µM
UAER ([2]; Week 1): 26.15, p = 0.06 mg/day
UAER ([2]; Week 2): 24.19, p = 0.032 mg/day
UAER, in words ([2]; Adriamycin treated mice): significant reduction
IC50 (CCR3): > 10 µM
kidney histology at 400× magnification (glomeruli), in words [3]: decreased glomerular sclerosis, mesangial expansion, hyaline deposits and tubular collapse
kidney histology at 100× magnification, in words ([3]; with respect to vehicle control): reductions in tubular dilation and hyaline deposits
UACR reduction vs vehicle [1]: 64.8%
UAER [1, 10]: 15.68, p = 0.30 mg/day
UAER [1, 11]: 6.72, p = 0.07 mg/day
UAER [1, 12]: 11.75, p = 0.001 mg/day
UAER [1, 7]: 7.1, p = 0.07 mg/day
UAER [1, 8]: 11.0, p = 0.1 mg/day
UAER [1, 9]: 2.8, p = 0.02 mg/day
UACR, in words ([1]; 5/6 nephrectomy model, four-week study): markedly reduced
reduction in UACR ([1]; 5/6 nephrectomy model, week four): 57%
reduction in UACR ([1]; 5/6 nephrectomy model, week three): 72%
creatinine and BUN, in words ([1]; 5/6 nephrectomy model, with respect to vehicle control, four-week time point): marked reductions
IC50 (CXCR3): > 10 µM
IC50 (C5aR): > 10 µM
IC50 (CCR1): > 10 µM
IC50 (CCR4): > 10 µM
IC50 (CXCR1): > 10 µM
IC50 (CXCR2): > 10 µM
IC50 (C3aR): > 10 µM
IC50 (CCR8): > 10 µM
IC50 (CCR10): > 10 µM
IC50 (CCR9): > 10 µM
IC50 (CCR2 [4]): 270 nM
concentration at 24 h [5]: ~3.5 µM
IC50 (CCR6): > 8 µM
IC50 (CXCR7): > 10 µM
IC50 (CXCR6): > 10 µM
IC50 (CCR2 [6]): 0.5 nM
IC50 (CXCR4): > 10 µM

Reference: patent US11382915B2, “Treatment of focal segmental glomerulosclerosis with CCR2 antagonists” (CHEMOCENTRYX, INC., priority 2017, dated 2022)
